Data from US10766878B2, “Sulfonylcycloalkyl carboxamide compounds” (Genentech, Inc., priority 2017, dated 2020).

Target: human TRPA1 (Homo sapiens (Human), UniProt O75762)
Experiment: hTRPA1 CHO Ca2+ AUC EVO (IC50); FLIPR Tetra block of cinnamaldehyde induced calcium influx
Format: cell-based
Conditions: CHO cells expressing TRPA1, 75 uM cinnamaldehyde agonist
Experimental: IC50 values ([…]) of compounds on the human and rat TRPA1 channels were determined using a FLIPR Tetra instrument. CHO cells expressing TRPA1 were plated into 384-well plates, incubated overnight at 37 C, and loaded with BD calcium indicator dye for 1 hr at 37° C. followed by 15 minutes. at room temperature. The assay buffer was Hank's Balanced Salt Solution (HBSS) containing 20 mM HEPES (pH readjusted to 7.4) along with 0.02% BSA.
Following dye load and plate cool down, compounds were added to the cells using FLIPR Tetra. Plates were then incubated with compounds for 20 minutes at room temperature prior to adding agonist. Following this incubation, ˜EC80 concentration of cinnamaldehyde (75 uM for human TRPA1 and 45 uM for rat TRPA1) was added to active the channels and block of cinnamaldehyde induced calcium influx was measured.
IC50 values were fit with a standard Hill function, keeping the Hill coefficient (n) fixed to 1.5. Fixing the Hill coefficient will generally reduce variability of the IC50 determination. The IC50 values were individually examined to make sure the MIN and MAX points were set correctly prior to validation of the results.

Chain of human TRPA1 (O75762 whole entry): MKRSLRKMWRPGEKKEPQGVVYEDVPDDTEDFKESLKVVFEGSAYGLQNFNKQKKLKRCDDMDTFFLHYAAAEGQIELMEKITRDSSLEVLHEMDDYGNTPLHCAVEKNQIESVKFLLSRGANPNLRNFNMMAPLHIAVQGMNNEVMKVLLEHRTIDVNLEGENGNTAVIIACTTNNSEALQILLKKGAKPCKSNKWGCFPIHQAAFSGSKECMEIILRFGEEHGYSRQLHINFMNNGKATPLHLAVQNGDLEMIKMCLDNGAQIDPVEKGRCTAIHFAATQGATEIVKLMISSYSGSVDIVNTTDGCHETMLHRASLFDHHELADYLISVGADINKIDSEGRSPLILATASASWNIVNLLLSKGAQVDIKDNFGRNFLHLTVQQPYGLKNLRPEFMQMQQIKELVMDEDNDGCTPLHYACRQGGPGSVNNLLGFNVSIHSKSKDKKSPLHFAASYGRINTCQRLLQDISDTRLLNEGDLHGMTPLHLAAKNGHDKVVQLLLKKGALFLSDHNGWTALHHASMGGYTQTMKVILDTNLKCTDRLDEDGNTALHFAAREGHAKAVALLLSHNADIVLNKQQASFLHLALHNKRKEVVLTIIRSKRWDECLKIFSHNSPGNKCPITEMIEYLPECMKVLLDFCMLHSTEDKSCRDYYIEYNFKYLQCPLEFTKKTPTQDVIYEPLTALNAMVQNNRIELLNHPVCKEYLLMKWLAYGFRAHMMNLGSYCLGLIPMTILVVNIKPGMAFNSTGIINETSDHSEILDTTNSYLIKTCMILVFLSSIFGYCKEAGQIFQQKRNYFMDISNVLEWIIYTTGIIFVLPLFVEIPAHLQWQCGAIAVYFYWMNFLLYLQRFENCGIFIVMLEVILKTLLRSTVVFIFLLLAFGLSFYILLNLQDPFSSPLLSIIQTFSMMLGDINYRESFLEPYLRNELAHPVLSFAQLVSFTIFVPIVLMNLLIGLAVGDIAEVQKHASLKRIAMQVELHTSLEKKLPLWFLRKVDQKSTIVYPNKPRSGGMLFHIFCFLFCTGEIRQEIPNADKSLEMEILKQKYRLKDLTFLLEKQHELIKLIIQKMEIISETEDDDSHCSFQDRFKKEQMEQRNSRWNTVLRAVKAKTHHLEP

SMILES	IC50 (Table 3)	IC50 (Table 1)
COc1nn(-c2ccc(C(F)(F)F)nc2)cc1CNC(=O)C1CCCC1S(=O)(=O)c1ccc(F)cc1 (single isomer, unassigned; enantiomer 2) [Example 39, 2-(4-fluorophenylsulfonyl)-N-((3-methoxy-1-(6-(trifluoromethyl)pyridin-3-yl)-1H-pyrazol-4-yl)methyl) cyclopentanecarboxamide (Enantiomer 2)]	218 nM	–
O=C(NCc1cc(-c2ccc(C(F)(F)F)nc2)ncc1Cl)[C@@H]1CC[C@@H]1S(=O)(=O)c1ccc(F)cc1 [Example 15]	140 nM	–
O=C(NCc1cn(-c2ccc(C(F)(F)F)cc2)nc1Cl)[C@@H]1CC[C@@H]1S(=O)(=O)c1ccc(F)cc1 [Example 28, (1S,2S)-N-((3-chloro-1-(4-(trifluoromethyl)phenyl)-1H-pyrazol-4-yl)methyl)-2-(4-fluorophenylsulfonyl) cyclobutanecarboxamide]	19.4 nM	19.4 nM
O=C(NCc1cn(-c2ccc(C(F)(F)F)cc2)nc1Cl)C1CCCC1S(=O)(=O)c1ccc(F)cc1 (single isomer, unassigned; enantiomer 2) [Example 42, N-((3-chloro-1-(4-(trifluoromethyl)phenyl)-1H-pyrazol-4-yl)methyl)-2-(4-fluorophenylsulfonyl) cyclopentanecarboxamide (Enantiomer 2)]	45.5 nM	45.5 nM
COc1nn(-c2ccc(C(F)(F)F)cc2)cc1CC(=O)N[C@@H]1CC[C@@H]1S(=O)(=O)c1ccc(F)cc1 [Example 14, N-((1R,2S)-2-((4-fluorophenyl)sulfonyl)cyclobutyl)-2-(3-methoxy-1-(4-(trifluoromethyl)phenyl)-1H-pyrazol-4-yl)acetamide]	5.2 nM	5.2 nM
O=C(NCc1cn(-c2ccc(C(F)(F)F)cc2)nc1Cl)[C@@H]1CCC[C@@H]1S(=O)(=O)c1ccc(F)cc1 [Example 43, (1S,2S)-N-((3-chloro-1-(4-(trifluoromethyl)phenyl)-1H-pyrazol-4-yl)methyl)-2-(4-fluorophenylsulfonyl) cyclopentanecarboxamide]	38.9 nM	38.9 nM
O=C(Cc1cn(-c2cnc(C(F)(F)F)nc2)nc1Cl)N[C@@H]1CC[C@@H]1S(=O)(=O)c1ccc(F)cc1 [Example 7, 2-(3-chloro-1-(2-(trifluoromethyl)pyrimidin-5-yl)-1H-pyrazol-4-yl)-N-((1R,2S)-2-(4-fluorophenylsulfonyl)cyclobutyl) acetamide]	40.3 nM	40.3 nM
COc1nn(-c2ccc(C(F)(F)F)nc2)cc1CNC(=O)[C@@H]1CCC[C@@H]1S(=O)(=O)c1ccc(F)cc1 [Example 40, (1S,2S)-2-(4-fluorophenylsulfonyl)-N-((3-methoxy-1-(6-(trifluoromethyl)pyridin-3-yl)-1H-pyrazol-4-yl)methyl) cyclopentanecarboxamide]	159 nM	–
O=C(NCc1cn(-c2ccc(C(F)(F)F)cc2)nc1Cl)C1CCC1S(=O)(=O)c1ccc(F)cc1 (single isomer, unassigned; enantiomer 3) [Example 30, N-((3-chloro-1-(4-(trifluoromethyl)phenyl)-1H-pyrazol-4-yl)methyl)-2-(4-fluorophenylsulfonyl) cyclobutanecarboxamide (Enantiomer 3)]	56.7 nM	–
CC1(C(=O)NCc2cn(-c3ccc(C(F)(F)F)nc3)nc2Cl)CCCC1S(=O)(=O)c1ccc(F)cc1 (single isomer, unassigned; enantiomer 1) [Example 31, N-((3-chloro-1-(6-(trifluoromethyl)pyridin-3-yl)-1H-pyrazol-4-yl)methyl)-2-(4-fluorophenylsulfonyl)-1-methylcyclopentanecarboxamide (Enantiomer 1)]	39.2 nM	39.2 nM
O=C(NCc1cn(-c2cnc(C(F)(F)F)nc2)nc1C(F)F)[C@@H]1CC[C@@H]1S(=O)(=O)c1ccc(F)cc1 [Example 16, (1S,2S)-N-((3-(difluoromethyl)-1-(2-(trifluoromethyl)pyrimidin-5-yl)-1H-pyrazol-4-yl)methyl)-2-(4-fluorophenylsulfonyl) cyclobutanecarboxamide]	162 nM	–
O=C(NCc1cc(-c2cccc(C(F)(F)F)c2)ncn1)[C@@H]1CC[C@@H]1S(=O)(=O)c1ccc(F)cc1 [Example 21, (1S,2S)-2-((4-fluorophenyl)sulfonyl)-N-((6-(3-(trifluoromethyl)phenyl)pyrimidin-4-yl)methyl)cyclobutanecarboxamide]	386 nM	–
COc1nn(-c2ccc(C(F)(F)F)cc2)cc1CNC(=O)C1CCC1(C)S(=O)(=O)c1ccc(F)cc1 (single isomer, unassigned; enantiomer 1) [Example 22, 2-(4-fluorophenylsulfonyl)-N-(3-methoxy-1-(4-(trifluoromethyl)phenyl)-1H-pyrazol-4-yl)methyl)-2-methylcyclobutanecarboxamide (Enantiomer 1)]	71.7 nM	–
O=C(NCc1cn(-c2ccc(C(F)(F)F)nc2)nc1C(F)(F)F)C1CCC1S(=O)(=O)c1ccc(F)cc1 (single isomer, unassigned; enantiomer 2) [Example 25, 2-(4-fluorophenylsulfonyl)-N-((3-(trifluoromethyl)-1-(6-(trifluoromethyl)pyridin-3-yl)-1H-pyrazol-4-yl)methyl) cyclobutanecarboxamide (Enantiomer 2)]	192 nM	–
COc1nn(-c2ccc(C(F)(F)F)nc2)cc1CNC(=O)C1(C)CCCC1S(=O)(=O)c1ccc(F)cc1 (single isomer, unassigned; enantiomer 1) [Example 34, 2-(4-fluorophenylsulfonyl)-N-((3-methoxy-1-(6-(trifluoromethyl)pyridin-3-yl)-1H-pyrazol-4-yl)methyl)-1-methylcyclopentanecarboxamide (Enantiomer 1)]	33.1 nM	33.1 nM
O=C(NCc1cn(-c2ccc(C(F)(F)F)nc2)nc1C(F)(F)F)[C@@H]1CCC[C@@H]1S(=O)(=O)c1ccc(F)cc1 [Example 41, (1S,2S)-2-[(4-fluorobenzene)sulfonyl]-N-[[3-(trifluoromethyl)-1-[6-(trifluoromethyl)pyridin-3-yl]-1H-pyrazol-4-yl]methyl]cyclopentane-1-carboxamide]	40.4 nM	–
CC1(C(=O)NCc2cn(-c3ccc(C(F)(F)F)nc3)nc2Cl)CCCC1S(=O)(=O)c1ccc(F)cc1 (single isomer, unassigned; enantiomer 2) [Example 32, N-((3-chloro-1-(6-(trifluoromethyl)pyridin-3-yl)-1H-pyrazol-4-yl)methyl)-2-(4-fluorophenylsulfonyl)-1-methylcyclopentanecarboxamide (Enantiomer 2)]	85.7 nM	–
COc1nn(-c2ccc(C(F)(F)F)nc2)cc1CC(=O)N[C@@H]1CC[C@@H]1S(=O)(=O)c1ccc(F)cc1 [Example 13, N-((1R,2S)-2-((4-fluorophenyl)sulfonyl)cyclobutyl)-2-(3-methoxy-1-(6-(trifluoromethyl)pyridin-3-yl)-1H-pyrazol-4-yl)acetamide]	18.5 nM	18.5 nM
